Here are results for one molecule from US20250162989A1, “USP30 INHIBITORS AND USES THEREOF” (Vincere Biosciences, Inc., priority 2021, published 2025).

Data set [1] in a line: Metabolic stability and intrinsic clearance in liver microsomes (human). The class given is in vitro ADME. Conditions: 1 μM, 37° C. On the procedure:
(§1) Test compounds were incubated with microsomes supplemented with co-factors at 37° C. Typical conditions were: compound concentration of 1 μM and 5 sampling time-points (0, 15, 30, 45 and 60 minutes), in duplicates. At each time-point, the reactions were terminated by the addition of organic solvent. The samples were centrifuged and the parent compound concentration was evaluated by LC-MS/MS measurements.
On the technique in general: Liver microsomes are vesicles of endoplasmic reticulum, rich in cytochrome P450 enzymes.

The subject of data set [2] is Caco-2 cells. The data set can be described thus: Caco-2 permeability screening assay. The class given is in vitro ADME. Conditions: Caco-2, 10 μM, […] at 37° C.
Description: Caco-2 cells were used after a 21-day cell culture in 24-well Transwell plates. Test and reference compounds (Metoprolol, Enalapril and Erythromycin) were prepared in DMSO and added to either the apical or basolateral chambers of the transwell plate assembly at a concentration of 10 μM. Lucifer Yellow was added to the donor buffer in all wells to assess integrity of the cell layers by monitoring Lucifer Yellow permeation. As Lucifer Yellow (LY) cannot freely permeate lipophilic barriers, a high degree of LY transport indicates poor integrity of the cell layer. After 1.5 hrs incubation at 37° C., aliquots were taken from both apical (A) and basal (B) chambers and added to stop solution in a 96 well plate. Concentrations of compound in the samples were measured by LC-MS/MS. The Efflux ratios, as an indication of active efflux from the apical cell surface, were calculated using the ratio of Papp B>A/Papp A>B.
A short description of data set [3]: Metabolic stability and intrinsic clearance in liver microsomes (mouse). Format: in vitro ADME. Conditions: 1 μM, 37° C. As to the method:
as §1

A short description of data set [4]: Kinetic solubility. The class given is physicochemical. Conditions: 100 mM PBS, 1 hour at room temperature. As to the method: To 396 μL of a 100 mM phosphate buffered saline (PBS) was added 4 μL of a 10 mM stock solution of the compound. The mixture was shaken at 1000 rpm for 1 hour at room temperature. […] Compound concentration was calculated by comparison to a standard calibration curve. The assay was done in duplicate. The results are reported in μMol.

The target in data set [5] is recombinant USP30 (amino acids 57-517 of the human sequence) (Homo sapiens (Human), UniProt Q70CQ3). Nature of the data set: In vitro USP30 biochemical assay (Ubiquitin-Rhodamine substrate). Conditions: […] recombinant USP30, 25 nM Ubiquitin-Rhodamine, fluorescence. As to the method: In vitro biochemical assay to establish the potency of compounds for USP30 inhibition: a 384-well plate assay using a fluorophore tagged substrate of USP30 was used for in vitro screening of compounds. Each compound was tested at
Chain of recombinant USP30 (amino acids 57-517 of the human sequence) (Q70CQ3 57-517): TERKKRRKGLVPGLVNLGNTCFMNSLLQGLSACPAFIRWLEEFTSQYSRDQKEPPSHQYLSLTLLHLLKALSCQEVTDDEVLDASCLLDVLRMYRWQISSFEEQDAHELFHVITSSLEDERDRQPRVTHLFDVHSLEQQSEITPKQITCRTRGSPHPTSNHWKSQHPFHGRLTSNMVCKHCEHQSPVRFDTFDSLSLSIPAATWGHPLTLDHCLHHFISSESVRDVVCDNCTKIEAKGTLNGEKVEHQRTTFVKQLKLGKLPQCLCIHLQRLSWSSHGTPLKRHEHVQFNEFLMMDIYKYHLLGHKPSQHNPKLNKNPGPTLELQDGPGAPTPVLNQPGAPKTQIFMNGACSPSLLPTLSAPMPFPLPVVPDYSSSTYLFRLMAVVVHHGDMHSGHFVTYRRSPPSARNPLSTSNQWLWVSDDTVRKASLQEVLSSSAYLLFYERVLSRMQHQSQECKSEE
10 different concentrations (0.5 to 10,000 nM) in duplicate wells. […] Data were analyzed using Graph Pad Prism software with a four-parameter (floating slope) fit to log concentration data to determine IC50s.

A short description of data set [6]: Metabolic stability and intrinsic clearance in liver microsomes (rat). Conditions: 1 μM, 37° C. The class given is in vitro ADME. As to the method:
as §1

In general, IC50 refers to the concentration needed to halve the response being measured. Turning to `CC(C)(C)NS(=O)(=O)c1ccc(NC(=O)[C@H](CC2CCCCC2)NC(=O)c2ccc(F)cc2)cc1` [Compound I-294], the “Half-life in human microsomes” value in data set [1] is “D (half-life of <15 minutes)”. Further, the “Efflux Ratio (Papp B>A/Papp A>B)” value in data set [2] is “B (efflux ratio >2 and ≤6)”. In addition, in data set [2] (apical to basolateral), the “Papp(A-B) (10 − 6, cm/sec)” value is recorded as 1.8 10 − 6, cm/sec. Moreover, the “Half-life in mouse microsomes” value in data set [3] was “D (half-life of <15 minutes)”. In addition, in data set [4], the “Kinetic Solubility (μMol)” value is “C (solubility ≥1.0 μMol and <50.0 μMol)”. Further, the IC50 in data set [5] is below 0.05 µM. For the same molecule, the “Half-life in rat microsomes” value in data set [6] is “D (half-life of <15 minutes)”.
